Test system: QGY-7701 cell line
Assay: CCK-8 cell proliferation assay, QGY-7701
Type: cell-based, human
Conditions: read-out: IC50 QGY-7701; CCK8, 72 h of treatment

For N.N.[Cl][Pt][Cl] [Cisplatin], the IC50 was 8.75 ± 0.26 µM.
